In patent US20210038502A1, “S1PR2 ANTAGONISTS FOR TREATING DISEASES INVOLVING ABNORMAL IMMUNE RESPONSES” (INSERM (Institut National de la Santé et de la Recherche …, priority 2017, published 2021):

Tests used:
[1] = test system: tonsil naive T cells; test: Transwell chemotaxis of tonsil naive T cells towards S1P; assay type: cell-based, human; conditions: for Effect of pharmacological inhibitor on tonsil naive T cell migration to S1P: tonsil naive T cells, 2 h pre-incubation with inhibitor
[2] = test system: tonsil TCM and TEM cells; test: Transwell migration of tonsil memory T cells (TCM, TEM) in presence of S1P; assay type: cell-based, human; conditions: for Impact on memory T cell migration in the presence of S1P: tonsil memory T cells
[3] = test system: peripheral T cells and NK cells; conditions: cited from earlier work
[4] = test system: act-CD4+ and act-CD8+ T cells; test: Transwell migration of tonsil recently activated T cells (CD38+HLA-DR+) in presence of S1P; assay type: cell-based, human
Source text: Upon antigen-mediated activation, T cells are retained within secondary lymphoid organs, presumably to sustain their activation and differentiation through serial interactions with antigen presenting cells. Mechanistically, it was previously reported that mouse T cells lose their reactivity during this phase by down regulating S1PR1 expression (Matloubian et al., 2004). We addressed this point in human, exploiting the fact that tonsils contain act-T cells in a variable proportion, classically defined as CD38^+HLA-DR^+.

[5] = test system: tonsil T cell subsets; test: Transwell migration of tonsil T cell subsets toward CXCL12 +/- S1P
Method: Results are shown as migration index.
All material was used after obtaining informed consent and the research was conducted in accordance with the Helsinki Declaration. […] Pediatric tonsils were obtained from patients undergoing tonsillectomy and were cut into pieces using a scalpel and then passed through a 70 μM cell strained to produce a cell suspension. Cells were then ficollized and washed before migration studies.
Tonsil lymphocytes or PBMC were suspended in RPMI1640 supplemented with 4 mg/ml fatty acid-free bovine albumin (Sigma, St-Louis, USA). […] Cell migration was analyzed in Transwell chambers (Costar, Cambridge, USA) with 5 μm pore-width polycarbonate filters. […] PBMC or tonsil cells were added to the top chambers of the transwell systems in the presence or absence of the pharmacological inhibitors and incubated at 37° C. for 2 hours. The chemoattractants were then added in the lower chamber and the cells were allowed to migrate for 2 hours. Transmigrated cells were stained for CD3 (UCHT1), CD4 (RPA-T4), CD8 (RPA-T8), CD45RO (UCHL1), CCR7 (G043H7), CD69 (FN50), CD103 (Ber-act8), CD38 (HIT32) and HLA-DR (LN3) and analyzed/counted by flow cytometry (MACSquant, Miltenyi biotec, Bergisch Gladbach, Germany). All antibodies were purchased from BD-Biosciences (San Jose, Calif.), eBioscience (San Diego, Calif.), Beckman-Coulter (Miami, Fla.) or Biolegend (San Diego, Calif.). […] The percentage of input was calculated as the ratio between the number of cells migrating in a given condition and the number of cells used for the chemotaxis assay.

[6] = test system: tonsil CD4+ TRM cells (CD69 positive); test: Transwell migration of tonsil resident memory T cells (TRM) in presence of S1P; conditions: irrespective of CD103 expression
Method: All material was used after obtaining informed consent and the research was conducted in accordance with the Helsinki Declaration. Human peripheral blood was obtained from healthy donors. Cells were ficollized and then washed several times in complete medium before resuspension in chemotaxis medium. Pediatric tonsils were obtained from patients undergoing tonsillectomy and were cut into pieces using a scalpel and then passed through a 70 μM cell strained to produce a cell suspension. Cells were then ficollized and washed before migration studies.
Tonsil lymphocytes or PBMC were suspended in RPMI1640 supplemented with 4 mg/ml fatty acid-free bovine albumin (Sigma, St-Louis, USA). […] Cell migration was analyzed in Transwell chambers (Costar, Cambridge, USA) with 5 μm pore-width polycarbonate filters. […] Transmigrated cells were stained for CD3 (UCHT1), CD4 (RPA-T4), CD8 (RPA-T8), CD45RO (UCHL1), CCR7 (G043H7), CD69 (FN50), CD103 (Ber-act8), CD38 (HIT32) and HLA-DR (LN3) and analyzed/counted by flow cytometry (MACSquant, Miltenyi biotec, Bergisch Gladbach, Germany). […] The percentage of input was calculated as the ratio between the number of cells migrating in a given condition and the number of cells used for the chemotaxis assay.

[7] = test system: blood T cells; test: Transwell chemotaxis of blood T cells (PBMC) towards S1P; assay type: cell-based, human
Source text: T cell subsets were identified by flow cytometry.

[8] = target: S1PR1 (Homo sapiens, UniProt P21453); conditions: read-out: Kd of S1P to S1PR1; cited from earlier work
S1PR1, sequence (P21453 whole entry, species assumed): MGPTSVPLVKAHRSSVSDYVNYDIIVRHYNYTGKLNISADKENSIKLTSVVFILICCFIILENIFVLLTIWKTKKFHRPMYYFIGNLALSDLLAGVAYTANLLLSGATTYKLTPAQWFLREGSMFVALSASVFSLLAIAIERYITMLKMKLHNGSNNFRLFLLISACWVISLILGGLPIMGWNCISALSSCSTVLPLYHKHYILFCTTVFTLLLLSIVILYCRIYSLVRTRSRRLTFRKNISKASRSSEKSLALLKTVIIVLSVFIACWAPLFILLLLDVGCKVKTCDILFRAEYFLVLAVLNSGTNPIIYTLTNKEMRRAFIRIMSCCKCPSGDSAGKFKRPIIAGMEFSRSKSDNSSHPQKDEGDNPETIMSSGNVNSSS

Cc1cc(CN)cc(C)c1NC(=O)c1ccc(-c2cc(Cl)ccc2Cl)o1 [CYM50358]
Effect of pharmacological inhibitor on tonsil naive T cell migration to S1P ([1]; S1P gradient): insensitive

CCCCCCCCc1ccc(CCC(N)(CO)CO)cc1 [FTY720]
Effect of pharmacological inhibitor on tonsil naive T cell migration to S1P ([1]; S1P gradient): strongly inhibited | Impact on memory T cell migration in the presence of S1P [2]: negative impact | Effect on peripheral TEM cells and NK cells in treated patients [3]: does not affect | Effect on peripheral naive and central memory T cells in treated patients [3]: quick decrease

Cc1nn(C)c2nc(NNC(=O)Nc3cc(Cl)nc(Cl)c3)cc(C(C)C)c12 [JTE-013]
Effect of pharmacological inhibitor on tonsil naive T cell migration to S1P ([1]; S1P gradient): increased | Effect on the inhibitory effect of S1P on TCM and TEM migration ([2]; tonsil TCM and TEM cells): abrogated | Effect on S1P inhibition of spontaneous migration of act-CD4+ and act-CD8+ T cells ([4]; CD38+HLA-DR+ tonsil T cells): curbed | Effect on S1P-mediated decrease of CXCL12-induced migration of TEM and TCM cells ([5]; CXCL12 12 ng/ml, S1P 37 nM, JTE-013 1000 nM for 2 h): abrogated | Effect on S1P inhibition of spontaneous migration of CD4+ TRM cells ([6]; CD69 positive): abrogated

CCCCCCCCCCCCC/C=C/[C@@H](O)[C@@H](N)COP(=O)(O)O [S1P, Sphingosine-1 phosphate]
Effect of S1P gradients on tonsil naive T cell chemotaxis ([1]; compared to control without S1P): strongly increased | S1P concentration giving maximum migration of tonsil naive T cells ([1]; transwell, S1P gradient): 30 to 60 nM | Effect of S1P on spontaneous migration of tonsil TCM and TEM cells ([2]; S1P in lower chamber, especially memory CD4 T cells): inhibited | Effect of S1P on spontaneous migration of act-CD4+ and act-CD8+ T cells [4]: strongly inhibited | Response of blood memory T cells to S1P ([7]; PBMC): did not respond | Response of blood naive T cells to S1P ([7]; PBMC from healthy donors): did not respond | Kd [8]: 8 nM | Effect of S1P on CXCL12-induced migration of TEM cells ([5]; S1P 37 nM in lower chamber): decreased | Effect of S1P on CXCL12-induced migration of naive CD4 and CD8 T cells ([5]; S1P 37 nM in lower chamber): slightly increased | Effect of S1P on spontaneous migration of CD4+ TRM cells [6]: inhibited

FC(F)(F)c1cccc(-c2noc(-c3cc(-c4ccccc4)c(C(F)(F)F)s3)n2)c1 [SEW2871]
Effect of pharmacological inhibitor on tonsil naive T cell migration to S1P ([1]; S1P gradient): strongly inhibited | Impact on memory T cell migration in the presence of S1P [2]: negative impact
